Experimental data taken from patent publication US20260274892A1, “MACROCYCLIC BROAD SPECTRUM ANTIBIOTICS” (RQx Pharmaceuticals, Inc., priority 2017, published 2026).

Tested on: Escherichia coli ATCC 25922
Assay: Minimum inhibitory concentration (MIC), CLSI broth micro-dilution, E. coli
Format: cell-based
Settings: Escherichia coli
Description: In vitro antimicrobial activity of each compound was determined by measuring minimal inhibitor concentrations (MICs) using the broth micro-dilution technique as approved by the Clinical and Laboratory Standards Institute (CLSI) (Methods for Dilution Antimicrobial Susceptibility Tests for Bacteria that Grow Aerobically; Approved Standard-Eighth Edition. CLSI document M07-A8. Wayne, PA: Clinical and Laboratroy Standards; 2009). Antibacterial activity was measure against two strains of bacteria: a Methicillin Resistant Staphylococcus aureus strain USA 200, (S. aureus) and Escherichia coli ATCC 25922 (E. coli), a clinically relevant Gram-negative strain. Cells were inoculated onto plates of Trypyticase Soy Agar or Luria Agar respectively and grown at 35° C. for 20 hours. Inocula suspensions were prepared by scraping cells into 1 mL of testing media (cation adjusted Mueller Hinton Broth supplemented with 0.002% v/v Tween-80) and diluting to a final OD600nm of 0.01.
Test compounds were prepared in DMSO at a concentration of 10 mg/mL. In protocol 1, the compound stocks were diluted into testing media at a concentration of 64 µg/ml and serial 2-fold dilutions were made in the same media, in 96-well U bottom microtiter dishes, for a total of 10 compound concentrations. In protocol 2, the compound stocks were diluted into testing media at a concentration of 4 µg/mL and serial 2-fold dilutions were made in the same media, in 96-well U bottom microtiter dishes, for a total of 10 compound concentrations. In protocol 3, compound stocks were diluted into testing media at a concentration of 0.5 μg/mL, with serial 2-fold dilutions conducted as described above. In protocol 4, compound stocks were diluted into testing media at a concentration of […], with serial 2-fold dilutions conducted as described above. Inocula suspensions were added to the 2-fold serial dilutions of test compounds to a final density of GD OD600nm of 0.0005 and incubated at 35° C. for 22 hours.

[1] = ATCC25922, 22 h, Table 6, cation adjusted Mueller Hinton Broth + 0.002% Tween-80, 35° C.
[2] = ATCC25922, Table 6, cation adjusted Mueller Hinton Broth + 0.002% Tween-80, 35° C., 22 hours

| Compound | MIC [1] [µM] | MIC [2] [µM] |
| --- | --- | --- |
| Cc1nc(-c2ccc(C3CCCCC3)cc2)nc(C)c1C(=O)N[C@@H](CCN)C(=O)N(C)[C@@H]1C(=O)N[C@@H](C)C(=O)N[C@H](C(=O)NCC#N)Cc2ccc(OCCN)c(c2)-c2cc1ccc2OCCN (racemic) [Compound 304, rac-(8S,11S,14S)-3,18-bis(2-aminoethoxy)-N-(cyanomethyl)-11-methyl-14-[methyl-[rac-(2S)-4-amino-2-[[2-(4-cyclohexylphenyl)-4,6-dimethyl-pyrimidine-5-carbonyl]amino]butanoyl]amino]-10,13-dioxo-9,12-diazatricyclo[13.3.1.12,6]icosa-1(18),2(20),3,5,15(19),16-hexaene-8-carboxamide] | 0.13 |  |
| C=Cc1ccc(C#Cc2nc(C)c(C(=O)N[C@@H](CCN)C(=O)N(C)[C@@H]3C(=O)N[C@@H](C)C(=O)N[C@H](C(=O)NCC#N)Cc4ccc(OCCN)c(c4)-c4cc3ccc4OCCN)c(C)n2)cc1 (racemic) [Compound 310, rac-(8S,11S,14S)-3,18-bis(2-aminoethoxy)-N-(cyanomethyl)-11-methyl-14-[methyl-[rac-(2S)-4-amino-2-[[4,6-dimethyl-2-[2-(4-vinylphenyl)ethynyl]pyrimidine-5-carbonyl]amino]butanoyl]amino]-10,13-dioxo-9,12-diazatricyclo[13.3.1.12,6]icosa-1(18),2(20),3,5,15(19),16-hexaene-8-carboxamide] |  | 0.53 |
| Cc1nc(-c2ccc(OC3(C)CC3)cc2)nc(C)c1C(=O)N[C@@H](CCN)C(=O)N(C)[C@@H]1C(=O)N[C@@H](C)C(=O)N[C@H](C(=O)NCC#N)Cc2ccc(OCCN)c(c2)-c2cc1ccc2OCCN (racemic) [Compound 344, rac-(8S,11S,14S)-3,18-bis(2-aminoethoxy)-N-(cyanomethyl)-11-methyl-14-[methyl-[rac-(2S)-4-amino-2-[[4,6-dimethyl-2-[4-(1-methylcyclopropoxy)phenyl]pyrimidine-5-carbonyl]amino]butanoyl]amino]-10,13-dioxo-9,12-diazatricyclo[13.3.1.12,6]icosa-1(18),2(20),3,5,15(19),16-hexaene-8-carboxamide] |  | 0.38 |

More lines, main results first:

| MIC [1] [µM] | Compound | MIC [2] [µM] |
| --- | --- | --- |
| 0.13 | Cc1nc(-c2ccc(C3CCCCCC3)cc2)nc(C)c1C(=O)N[C@@H](CCN)C(=O)N(C)[C@@H]1C(=O)N[C@@H](C)C(=O)N[C@H](C(=O)NCC#N)Cc2ccc(OCCN)c(c2)-c2cc1ccc2OCCN (racemic) [Compound 305, rac-(8S,11S,14S)-3,18-bis(2-aminoethoxy)-N-(cyanomethyl)-11-methyl-14-[methyl-[rac-(2S)-4-amino-2-[[2-(4-cycloheptylphenyl)-4,6-dimethyl-pyrimidine-5-carbonyl]amino]butanoyl]amino]-10,13-dioxo-9,12-diazatricyclo[13.3.1.12,6]icosa-1(18),2(20),3,5,15(19),16-hexaene-8-carboxamide] |  |
| 0.13 | Cc1nc(-c2ccc(N3C[C@H](C)C[C@H](C)C3)cc2)nc(C)c1C(=O)N[C@@H](CCN)C(=O)N(C)[C@@H]1C(=O)N[C@@H](C)C(=O)N[C@H](C(=O)NCC#N)Cc2ccc(OCCN)c(c2)-c2cc1ccc2OCCN (racemic) [Compound 327, rac-(8S,11S,14S)-3,18-bis(2-aminoethoxy)-N-(cyanomethyl)-11-methyl-14-[methyl-[rac-(2S)-4-amino-2-[[4,6-dimethyl-2-[4-[rac (3S,5R)-3,5-dimethyl-1-piperidyl]phenyl]pyrimidine-5-carbonyl]amino]butanoyl]amino]-10,13-dioxo-9,12-diazatricyclo[13.3.1.12,6]icosa-1(18),2(20),3,5,15(19),16-hexaene-8-carboxamide] |  |
